Assay results from publication PMC10938783, “A novel pan-PI3K inhibitor KTC1101 synergizes with anti-PD-1 therapy by targeting tumor suppression and immune activation” (Molecular Cancer, 2024).

Key:
[1] = test system: kinase panel comprising 50 kinases; experiment: Kinase profiling, panel of 50 kinases; type: biochemical; settings: 1 μM
Experimental: Procedures for the preparation of KTC1101 are described in supplemental data. To investigate the PI3K inhibitory efficacy of KTC1101, its impact on the kinase activity of PI3K isoforms was assessed using the Adapta kinase assay as previously reported. Initially, a dilution series of 2.5 µL KTC1101 or DMSO (control) was prepared and added to the respective wells of a 384-well plate. Subsequently, optimized 2.5 µL kinase solutions, including PIK3CA/PIK3R1, PIK3CB/PIK3R1, PIK3CG, and PIK3CD/PIK3R1, were introduced to each well. After adding the kinase solutions, 5 µL ATP and PIP2:PS lipid kinase substrate was introduced into each well and incubated for 1 h at room temperature. This step allows for the initiation and progression of the kinase reaction. Following the incubation, a detection solution (5 µL) was added to all the wells. This solution contained 30 mM EDTA to stop the kinase reaction, 6 nM Eu-labeled anti-ADP antibody, and a 3 × concentration of Alexa Fluor® 647 ADP tracer. The EDTA effectively terminates the kinase reaction, while the anti-ADP antibody and ADP tracer are crucial for the detection of ADP produced during the kinase reaction, which correlates with PI3K activity. […] Finally, the fluorescence of each well was measured using a Multi-Mode Microplate Reader (Spark, Tecan). […]

[2] = test system: HSC2 cells; experiment: Cell proliferation MTT assay; type: cell-based; settings: Homo sapiens, HSC-2; HSC2, 48-h treatment; read-out: IC50 cell viability
Experimental: (§1) Cell proliferation was measured by MTT assay as previously described. The cells were seeded in a volume of 200 μL/well in 96-well plates. The next day, cells were treated with DMSO or a series of concentrations of KTC1101. After a 48-h incubation period, 20 μL of MTT (5 mg/mL) was added to each well. After further incubation for 4 h at 37 °C, the absorbance at 490 nm was measured using an iMark microplate reader (BIO-RAD, Hercules, CA, USA).

[3] = test system: TMD8 cells; experiment: Cell proliferation MTT assay; type: cell-based; settings: Homo sapiens; TMD8, 48-h treatment; read-out: IC50 cell viability
Experimental: as §1

[4] = test system: TMD8 tumors; experiment: TMD8 xenograft in NSG mice; type: in vivo, mouse
Experimental: (§2) BALB/c nude, NSG, and C57BL/6J mice were obtained from Tianjin Medical University. The housing temperature was controlled, ranging from 20.5–24 °C, and humidity was monitored but not controlled ranging from 30–70%. The 12-h daily light cycle was from 06:00 to 18:00. To generate a murine subcutaneous tumor model, PC3 and HSC2 cells were subcutaneously injected into the right lateral flank of 4- to 5-week-old male BALB/c nude mice. TMD8, CAL33, and S24 cells were subcutaneously injected into the right lateral flank of 4- to 5-week-old male NSG mice. When tumors reached a volume of 300–500 mm^3, they were excised, diced into 2 mm × 2 mm × 2 mm pieces, and implanted into the right flanks of BALB/c nude or NSG mice. Tumors were allowed to grow to a volume of 100 mm^3, and then the animals were randomly divided into several groups. Each group of five mice was treated with either vehicle or KTC1101 (25, 50, or 100 mg/kg, PO). Tumor size was measured every 3 d or 4 d until the endpoint. The tumor volume was calculated using the following formula: length × width × height/2. At the end of the experimental period, mice were euthanized by overdosing on pentobarbital sodium, and the tumors were removed. Tumor tissue was formalin-fixed and paraffin-embedded for histological analysis.

[5] = test system: S24 tumors; experiment: S24 tumors in NSG mice; type: in vivo, mouse; settings: 100 mg/kg daily oral gavage
Experimental: as §2

[6] = test system: Tregs; experiment: T cell suppression assay (CFSE); type: cell-based, mouse
Experimental: Spleens from naive mice were isolated and ground through 70-μm filters to generate a single-cell suspension. After RBC lysis, single-cell suspensions were stained with CD3, CD8, CD4, CD25 or CD127 antibodies. Viable CD8^+ T cells (CD3^+CD8^+), CD4^+ T cells (CD3^+CD4^+), and Tregs (CD3^+CD4^+CD25^+CD127^low/−) from single-cell suspensions were sorted by FACS. Then T cells were labelled with […] in pre-warmed PBS for 10 min at 37 °C. The CFSE-labelled T cells were seeded in 96-well plates pre-coated with 10 μg/mL CD3 and 1 μg/mL CD28 antibodies and cultured in 1640 media with 10% FBS, 1 mM Sodium Pyruvate (Thermo, 11,360,070), 50 μM β-ME and 100 IU/mL IL2, as well as different concentrations of KTC1101 or solvent control. After 72 h, cells were harvested and the CFSE signal was measured by flow cytometry. Cell growth rate was calculated by the percentage of live, proliferated cell number at each drug concentration vs. solvent control.

[7] = Drug concentration measurement in tumors; type: in vivo, mouse; settings: B16 tumors, continuous dosing
Experimental: To evaluate the intratumoral concentration of KTC1101, the B16 murine cancer model was established by subcutaneously implanting 2.5 × 10^5 B16 cells into the right lateral flank of C57BL/6 mice. The mouse model was utilized for experiments when tumor volumes reached approximately 100 mm^3. The B16 tumor-bearing C57BL/6 mice were divided into groups, with each group comprising three mice. They were treated with KTC1101 at doses of either 50 or 100 mg/kg (PO). The mice were sacrificed, and tumors were collected on days 1, 5, and 7 post-treatment. Approximately 50 mg of each tumor was homogenized in 1 mL of methanol, followed by centrifugation at 12,000 rpm at 4 °C for 10 min. The concentration of KTC1101 in the supernatant was quantified using LC–MS.

[8] = test system: PC3 cells gene expression; experiment: RNA-Seq (DEGs, GSEA) of PC3 cells; settings: 25 nM, 48 h
[9] = Liver microsome metabolic stability assay; settings: mouse, liver microsomes

What does the source list for `COc1cc(N)cc2c1nc(C(F)F)n2-c1nc(N2CCCOCC2)nc(N2CCOCC2)n1` [KTC1101, 2-(difluoromethyl)-4-methoxy-1-(4-morpholino-6-(1,4-oxazepan-4-yl)-1,3,5-triazin-2-yl)-1H-benzo[d]imidazol-6-amine]?
inhibition rate, all four PI3K targets [1]: greater than 90%; inhibition rate, other kinases of the panel [1]: less than 50%; IC50 [2]: 117 nM; IC50 [3]: 20.6 nM; tumor growth ([4]; 100 mg/kg PO): slowed tumor progression; efficacy versus ZSTK474 and Copanlisib ([4]; 100 mg/kg and 125 mg/kg PO): marginally outperformed those of 200 mg/kg ZSTK474 orally and was comparable to 14 mg/kg Copanlisib intravenously; time until tumors started to progress [5]: 10 days; selective inhibition of Treg proliferation over CD8^+ T cells [6]: over a tenfold greater extent than CD8^+ T cells; IC50 ([6]; Mus musculus, T-cell, 72 h, read-out: IC50 proliferation): 2.58 nM; intratumoral drug concentration [7]: accumulation of the drug in continuous dosing; expression of genes associated with the PI3K/AKT/mTOR pathway (GSEA) [8]: reduction in the expression of genes; half-life at 1 µM [9]: 40.7 min; microsomal CLint at 1 µM [9]: 34 µL/min/mg
